Measurements from US20170190671A1, “BIS(ARYL)CATECHOL DERIVATIVES AS HERBICIDES” (E I DU PONT DE NEMOURS AND COMPANY, priority 2014, published 2017).

Legend:
Experiment in all cases: Test D postemergence
Format in all cases: in vivo
Conditions in all cases: scale 0 to 100
[1] = tested on: green foxtail (Setaria viridis)
Excerpt: (§1) Seeds of plant species selected from bluegrass (annual bluegrass, Poa annua), blackgrass (Alopecurus myosuroides), canarygrass (Phalaris minor), chickweed (common chickweed, Stellaria media), cutleaf geranium (Geranium dissectum), galium (catchweed bedstraw, Galium aparine), downy bromegrass (Bromus tectorum), field poppy (Papaver rhoeas), field violet (Viola arvensis), green foxtail (Setaria viridis), deadnettle (henbit deadnettle, Lamium amplexicaule), Italian ryegrass (Lolium multiflorum), kochia (Kochia scoparia), lambsquarters (Chenopodium album), oilseed rape (Brassica napus), pigweed (Amaranthus retroflexus), chamomile (scentless chamomile, Matricaria inodora), Russian thistle (Salsola kali), speedwell (bird's-eye speedwell, Veronica persica), spring barley (Hordeum vulgare), spring wheat (Triticum aestivum), wild buckwheat (Polygonum convolvulus), wild mustard (Sinapis arvensis), wild oat (Avenafatua), wild radish (Raphanus raphanistrum), windgrass (Apera spica-venti), winter barley (Hordeum vulgare), and winter wheat (Triticum aestivum) were planted into a silt loam soil and treated preemergence with test chemicals formulated in a non-phytotoxic solvent mixture which included a surfactant.
(§2) At the same time, these species were planted in pots containing Redi-Earth® planting medium (Scotts Company, 14111 Scottslawn Road, Marysville, Ohio 43041) comprising spaghnum peat moss, vermiculite, wetting agent and starter nutrients and treated with postemergence applications of the test chemicals formulated in the same manner. Plants ranged in height from 2 to 18 cm (1- to 4-leaf stage). Treated plants and controls were maintained in a controlled growth environment for 14 to 21 days after which time all species were compared to controls and visually evaluated. Plant response ratings, summarized in Table D, are based on a scale of 0 to 100 where 0 is no effect and 100 is complete control. A dash (-) response means no test result.

[2] = tested on: lambsquarters (Chenopodium album)
Excerpt: as §1, §2

[3] = tested on: wild radish (Raphanus raphanistrum)
Excerpt: as §1, §2

[4] = tested on: bluegrass (annual bluegrass, Poa annua)
Excerpt: as §1, §2

[5] = tested on: field poppy (Papaver rhoeas)
Excerpt: as §1, §2

[6] = tested on: chamomile (scentless chamomile, Matricaria inodora)
Excerpt: as §1, §2

[7] = tested on: galium (catchweed bedstraw, Galium aparine)
Excerpt: as §1, §2

[8] = tested on: spring wheat (Triticum aestivum)
Excerpt: as §1, §2

[9] = tested on: downy bromegrass (Bromus tectorum)
Excerpt: as §1, §2

kochia (Kochia scoparia) = tested on: kochia (Kochia scoparia)
Excerpt: as §1, §2

[10] = tested on: winter barley (Hordeum vulgare)
Excerpt: as §1, §2

[11] = tested on: blackgrass (Alopecurus myosuroides)
Excerpt: as §1, §2

[12] = tested on: wild buckwheat (Polygonum convolvulus)
Excerpt: as §1, §2

[13] = tested on: winter wheat (Triticum aestivum)
Excerpt: as §1, §2

[14] = tested on: oilseed rape (Brassica napus)
Excerpt: as §1, §2

[15] = tested on: Italian ryegrass (Lolium multiflorum)
Excerpt: as §1, §2

[16] = tested on: speedwell (bird's-eye speedwell, Veronica persica)
Excerpt: as §1, §2

[17] = tested on: field violet (Viola arvensis)
Excerpt: as §1, §2

[18] = tested on: wild mustard (Sinapis arvensis)
Excerpt: as §1, §2

[19] = tested on: chickweed (common chickweed, Stellaria media)
Excerpt: as §1, §2

## Fc1cccc(Oc2ncc(C(F)(F)F)cn2)c1Oc1ncc(Cl)cn1 [Compound 42, 5-chloro-2-[2-fluoro-6-[[5-(trifluoromethyl)-2-pyrimidinyl]oxy]phenoxy]pyrimidine]
[1]; 16 g ai/ha
  Plant response rating, Foxtail, Green: 10
[1]; 31 g ai/ha
  Plant response rating, Foxtail, Green: 15
[1]; 62 g ai/ha
  Plant response rating, Foxtail, Green: 60
[1]; 125 g ai/ha
  Plant response rating, Foxtail, Green: 70
[2]; 16 g ai/ha
  Plant response rating, Lambsquarters: 70
[2]; 31 g ai/ha
  Plant response rating, Lambsquarters: 85
[2]; 62 g ai/ha
  Plant response rating, Lambsquarters: 90
[2]; 125 g ai/ha
  Plant response rating, Lambsquarters: 95
[3]; 16 g ai/ha
  Plant response rating, Radish, Wild: 80
[3]; 31 g ai/ha
  Plant response rating, Radish, Wild: 75
[3]; 62 g ai/ha
  Plant response rating, Radish, Wild: 85
[3]; 125 g ai/ha
  Plant response rating, Radish, Wild: 90
[4]; 16 g ai/ha
  Plant response rating, Bluegrass: 50
[4]; 31 g ai/ha
  Plant response rating, Bluegrass: 50
[4]; 62 g ai/ha
  Plant response rating, Bluegrass: 60
[4]; 125 g ai/ha
  Plant response rating, Bluegrass: 70
[5]; 16 g ai/ha
  Plant response rating, Field Poppy: 55
[5]; 31 g ai/ha
  Plant response rating, Field Poppy: 75
[5]; 62 g ai/ha
  Plant response rating, Field Poppy: 100
[5]; 125 g ai/ha
  Plant response rating, Field Poppy: 100
[6]; 16 g ai/ha
  Plant response rating, Chamomile: 0
[6]; 31 g ai/ha
  Plant response rating, Chamomile: 0
[6]; 62 g ai/ha
  Plant response rating, Chamomile: 5
[6]; 125 g ai/ha
  Plant response rating, Chamomile: 15
[7]; 16 g ai/ha
  Plant response rating, Galium: 70
[7]; 31 g ai/ha
  Plant response rating, Galium: 85
[7]; 62 g ai/ha
  Plant response rating, Galium: 90
[7]; 125 g ai/ha
  Plant response rating, Galium: 100
[8]; 16 g ai/ha
  Plant response rating, Wheat, Spring: 0
[8]; 31 g ai/ha
  Plant response rating, Wheat, Spring: 5
[8]; 62 g ai/ha
  Plant response rating, Wheat, Spring: 5
[8]; 125 g ai/ha
  Plant response rating, Wheat, Spring: 15
[9]; 16 g ai/ha
  Plant response rating, Bromegrass, Downy: 30
[9]; 31 g ai/ha
  Plant response rating, Bromegrass, Downy: 35
[9]; 62 g ai/ha
  Plant response rating, Bromegrass, Downy: 40
[9]; 125 g ai/ha
  Plant response rating, Bromegrass, Downy: 60
Kochia (Kochia scoparia); 16 g ai/ha
  Plant response rating, Kochia: 85
Kochia (Kochia scoparia); 31 g ai/ha
  Plant response rating, Kochia: 100
Kochia (Kochia scoparia); 62 g ai/ha
  Plant response rating, Kochia: 100
Kochia (Kochia scoparia); 125 g ai/ha
  Plant response rating, Kochia: 100
[10]; 16 g ai/ha
  Plant response rating, Barley, Winter: 5
[10]; 31 g ai/ha
  Plant response rating, Barley, Winter: 5
[10]; 62 g ai/ha
  Plant response rating, Barley, Winter: 10
[10]; 125 g ai/ha
  Plant response rating, Barley, Winter: 15
[11]; 16 g ai/ha
  Plant response rating, Blackgrass: 20
[11]; 31 g ai/ha
  Plant response rating, Blackgrass: 55
[11]; 62 g ai/ha
  Plant response rating, Blackgrass: 60
[11]; 125 g ai/ha
  Plant response rating, Blackgrass: 75
[12]; 16 g ai/ha
  Plant response rating, Buckwheat, Wild: 75
[12]; 31 g ai/ha
  Plant response rating, Buckwheat, Wild: 80
[12]; 62 g ai/ha
  Plant response rating, Buckwheat, Wild: 95
[12]; 125 g ai/ha
  Plant response rating, Buckwheat, Wild: 100
[13]; 16 g ai/ha
  Plant response rating, Wheat, Winter: 0
[13]; 31 g ai/ha
  Plant response rating, Wheat, Winter: 5
[13]; 62 g ai/ha
  Plant response rating, Wheat, Winter: 10
[13]; 125 g ai/ha
  Plant response rating, Wheat, Winter: 20
[14]; 16 g ai/ha
  Plant response rating, Oilseed Rape: 75
[14]; 31 g ai/ha
  Plant response rating, Oilseed Rape: 75
[14]; 62 g ai/ha
  Plant response rating, Oilseed Rape: 85
[14]; 125 g ai/ha
  Plant response rating, Oilseed Rape: 95
[15]; 16 g ai/ha
  Plant response rating, Ryegrass, Italian: 20
[15]; 31 g ai/ha
  Plant response rating, Ryegrass, Italian: 50
[15]; 62 g ai/ha
  Plant response rating, Ryegrass, Italian: 60
[15]; 125 g ai/ha
  Plant response rating, Ryegrass, Italian: 65
[16]; 16 g ai/ha
  Plant response rating, Speedwell: 40
[16]; 31 g ai/ha
  Plant response rating, Speedwell: 50
[16]; 62 g ai/ha
  Plant response rating, Speedwell: 80
[16]; 125 g ai/ha
  Plant response rating, Speedwell: 80
[17]; 16 g ai/ha
  Plant response rating, Field Violet: 65
[17]; 31 g ai/ha
  Plant response rating, Field Violet: 65
[17]; 62 g ai/ha
  Plant response rating, Field Violet: 90
[17]; 125 g ai/ha
  Plant response rating, Field Violet: 95
[18]; 16 g ai/ha
  Plant response rating, Mustard, Wild: 70
[18]; 31 g ai/ha
  Plant response rating, Mustard, Wild: 70
[18]; 62 g ai/ha
  Plant response rating, Mustard, Wild: 100
[18]; 125 g ai/ha
  Plant response rating, Mustard, Wild: 100
[19]; 16 g ai/ha
  Plant response rating, Chickweed: 65
[19]; 31 g ai/ha
  Plant response rating, Chickweed: 65
[19]; 62 g ai/ha
  Plant response rating, Chickweed: 85
[19]; 125 g ai/ha
  Plant response rating, Chickweed: 90
